From PubChem BioAssay AID248 (DTP/NCI, 2004) come the findings set out here.

The test system of the experiment is L1210 leukemia ip in BDF1 mice, survival T/C. Description: NCI In Vivo Anticancer Drug Screen. Data for tumor model L1210 Leukemia (intraperitoneal) in B6D2F1 (BDF1) mice. To be noted: endpoint: mean survival time, higher = longer survival. In a few lines:
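Ratio derived from survival: compound-dosed mice over vehicle-dosed mice, all bearing a transplantable tumor.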

The mark [1] stands for this setting: dose: 100.0 mg/kg/injection, schedule: Q01DX009 (ip), vehicle: saline.
Setting [2] is: dose: 100.0 mg/kg/injection, schedule: Q04DX003 (ip), vehicle: saline.
Setting [3] is: dose: 200.0 mg/kg/injection, schedule: Q01DX009 (ip), vehicle: saline.
Where [4] appears, read: dose: 200.0 mg/kg/injection, schedule: Q04DX003 (ip), vehicle: saline.
The mark [5] stands for this setting: dose: 400.0 mg/kg/injection, schedule: Q01DX009 (ip), vehicle: saline.
The mark [6] stands for this setting: dose: 400.0 mg/kg/injection, schedule: Q04DX003 (ip), vehicle: saline.
[7] abbreviates: dose: 100.0 mg/kg/injection, schedule: Q04DX003 (ip), vehicle: Klucel (hydroxypropylcellulose) (HPC).
The mark [8] stands for this setting: dose: 200.0 mg/kg/injection, schedule: Q04DX003 (ip), vehicle: Klucel (hydroxypropylcellulose) (HPC).
[9] abbreviates: dose: 400.0 mg/kg/injection, schedule: Q04DX003 (ip), vehicle: Klucel (hydroxypropylcellulose) (HPC).

The structures appear in SMILES notation. Values joined by “and” are separate entries in the source; they are usually repeats but may differ in a detail not shown here. Equal values may be shown once. Toxic doses and inconclusive results are not listed. Square brackets hold non-standard residues; d marks the D form. Peptide text beside a SMILES is read from it. ξ: configuration not given here. ξF = NC(Cc1ccccc1)C(=O)O

Turning to `CC(C)NCC(=O)c1ccc(O)c(O)c1`, the T/C (dose: 20.0 mg/kg/injection, schedule: Q01DX Z (ip), vehicle: saline) was 98 % of control; the T/C (dose: 20.0 mg/kg/injection, schedule: Q#A X Z (ip), vehicle: methylcellulose (MC)) is 96 % of control; the T/C (dose: 25.0 mg/kg/injection, schedule: Q01DX Z (ip), vehicle: carboxymethylcellulose (CMC)) is 107 % of control; the T/C (dose: 25.0 mg/kg/injection, schedule: Q03DX Z (ip), vehicle: carboxymethylcellulose (CMC)) was 93 % of control; the T/C (dose: 29.0 mg/kg/injection, schedule: Q03HX024 (ip), vehicle: saline) was 95 % of control; the T/C (dose: 31.0 mg/kg/injection, schedule: Q01DX Z (ip), vehicle: carboxymethylcellulose (CMC)) was 106 % of control. Moreover, the T/C runs as follows: (dose: 40.0 mg/kg/injection, schedule: Q01DX Z (ip), vehicle: saline) 107 % of control and 89 % of control; (dose: 43.0 mg/kg/injection, schedule: Q03HX024 (ip), vehicle: saline) 104 % of control; (dose: 49.0 mg/kg/injection, schedule: Q01DX Z (ip), vehicle: saline) 122 % of control; (dose: 50.0 mg/kg/injection, schedule: Q01DX001 (ip), vehicle: saline) 96 % of control; (dose: 50.0 mg/kg/injection, schedule: Q01DX Z (ip), vehicle: carboxymethylcellulose (CMC)) 104 % of control; (dose: 50.0 mg/kg/injection, schedule: Q03DX Z (ip), vehicle: carboxymethylcellulose (CMC)) 93 % of control. Further, the T/C (dose: 59.0 mg/kg/injection, schedule: Q04DX003 (ip), vehicle: saline) was 94 % of control; the T/C (dose: 62.0 mg/kg/injection, schedule: Q01DX Z (ip), vehicle: carboxymethylcellulose (CMC)) was 119 % of control; the T/C (dose: 64.0 mg/kg/injection, schedule: Q03HX024 (ip), vehicle: saline) was 105 % of control; the T/C (dose: 80.0 mg/kg/injection, schedule: Q01DX Z (ip), vehicle: saline) is 97 % of control and 119 % of control; the T/C (dose: 88.0 mg/kg/injection, schedule: Q04DX003 (ip), vehicle: saline) was 100 % of control; the T/C (dose: 96.0 mg/kg/injection, schedule: Q03HX024 (ip), vehicle: saline) is 106 % of control. For the same compound, the T/C is, setting by setting: (dose: 100.0 mg/kg/injection, schedule: Q01DX001 (ip), vehicle: saline) 107 % of control; under setting [1], 104 % of control; (dose: 100.0 mg/kg/injection, schedule: Q01DX Z (ip), vehicle: carboxymethylcellulose (CMC)) 115 % of control; (dose: 100.0 mg/kg/injection, schedule: Q03DX Z (ip), vehicle: carboxymethylcellulose (CMC)) 100 % of control; under setting [2], 103 % of control; (dose: 120.0 mg/kg/injection, schedule: Q03DX Z (ip), vehicle: methylcellulose (MC)) 102 % of control. Further, the T/C was 105 % of control (dose: 125.0 mg/kg/injection, schedule: Q01DX Z (ip), vehicle: carboxymethylcellulose (CMC)); 98 % of control (dose: 131.0 mg/kg/injection, schedule: Q04DX003 (ip), vehicle: saline); 114 % of control (dose: 143.0 mg/kg/injection, schedule: Q01DX009 (ip), vehicle: saline); 101 % of control and 118 % of control (dose: 143.0 mg/kg/injection, schedule: Q03HX024 (ip), vehicle: saline); 104 % of control and 121 % of control (dose: 160.0 mg/kg/injection, schedule: Q01DX Z (ip), vehicle: saline); 104 % of control (dose: 196.0 mg/kg/injection, schedule: Q04DX003 (ip), vehicle: saline). In addition, the T/C is, setting by setting: (dose: 200.0 mg/kg/injection, schedule: Q01DX001 (ip), vehicle: saline) 107 % of control; under setting [3], 115 % of control; (dose: 200.0 mg/kg/injection, schedule: Q03DX Z (ip), vehicle: carboxymethylcellulose (CMC)) 100 % of control; under setting [4], 109 % of control; (dose: 210.0 mg/kg/injection, schedule: Q01DX009 (ip), vehicle: saline) 184 % of control; (dose: 210.0 mg/kg/injection, schedule: Q03HX024 (ip), vehicle: saline) 116 % of control. Besides, the T/C (dose: 240.0 mg/kg/injection, schedule: Q03DX Z (ip), vehicle: methylcellulose (MC)) was 113 % of control; the T/C (dose: 288.0 mg/kg/injection, schedule: Q01DX001 (ip), vehicle: saline) was 102 % of control; the T/C (dose: 288.0 mg/kg/injection, schedule: Q04DX003 (ip), vehicle: saline) is 154 % of control; the T/C (dose: 320.0 mg/kg/injection, schedule: Q01DX009 (ip), vehicle: saline) is 104 % of control; the T/C (dose: 320.0 mg/kg/injection, schedule: Q03HX024 (ip), vehicle: saline) was 111 % of control; the T/C (dose: 400.0 mg/kg/injection, schedule: Q01DX001 (ip), vehicle: saline) is 107 % of control. The T/C under setting [5] is 107 % of control; the T/C (dose: 400.0 mg/kg/injection, schedule: Q01DX Z (ip), vehicle: carboxymethylcellulose (CMC)) is 111 % of control; the T/C (dose: 400.0 mg/kg/injection, schedule: Q03DX Z (ip), vehicle: carboxymethylcellulose (CMC)) was 114 % of control; the T/C under setting [6] was 104 % of control; the T/C (dose: 430.0 mg/kg/injection, schedule: Q04DX003 (ip), vehicle: saline) is 103 % of control; the T/C (dose: 478.0 mg/kg/injection, schedule: Q01DX009 (ip), vehicle: saline) is 116 % of control. For the same compound, the T/C (dose: 480.0 mg/kg/injection, schedule: Q03DX Z (ip), vehicle: methylcellulose (MC)) was 102 % of control.

`OCC1=CC(O)C2C=COC(C3OC(CO)C(O)C(O)C3O)C12` (configuration not stated): the T/C by setting is: (dose: 50.0 mg/kg/injection, schedule: Q01DX009 (ip), vehicle: saline) 96 % of control; under setting [1], 96 % of control; under setting [2], 96 % of control; under setting [3], 95 % of control; under setting [4], 100 % of control; under setting [6], 100 % of control.

`Brc1cc(Br)c(I)c(Br)c1`: the T/C (dose: 100.0 mg/kg/injection, schedule: Q01DX009 (ip), vehicle: saline with Tween-80) was 102 % of control; the T/C (dose: 100.0 mg/kg/injection, schedule: Q04DX003 (ip), vehicle: saline with Tween-80) was 96 % of control; the T/C (dose: 200.0 mg/kg/injection, schedule: Q01DX009 (ip), vehicle: saline with Tween-80) is 101 % of control; the T/C (dose: 200.0 mg/kg/injection, schedule: Q04DX003 (ip), vehicle: saline with Tween-80) was 108 % of control; the T/C (dose: 400.0 mg/kg/injection, schedule: Q01DX009 (ip), vehicle: saline with Tween-80) was 101 % of control; the T/C (dose: 400.0 mg/kg/injection, schedule: Q04DX003 (ip), vehicle: saline with Tween-80) is 103 % of control.

Take `NCC(=O)NCC(=O)NC(Cc1ccccc1)C(=O)O` (stereo not drawn) (H-Gly-Gly-[ξF]-OH): the T/C is 109 % of control under setting [1]; 110 % of control under setting [2]; 107 % of control under setting [3]; 100 % of control under setting [4]; 101 % of control under setting [5]; 101 % of control under setting [6].

For the compound `CCOc1ccc(N)c(S)c1`, the T/C was 105 % of control (dose: 13.3 mg/kg/injection, schedule: Q01DX Z (ip), vehicle: methylcellulose (MC)); 97 % of control (dose: 20.0 mg/kg/injection, schedule: Q01DX Z (ip), vehicle: methylcellulose (MC)); 95 % of control (dose: 30.0 mg/kg/injection, schedule: Q01DX Z (ip), vehicle: methylcellulose (MC)).

Regarding `O=[N+]([O-])c1ccccc1CN1c2ccccc2N=C2c3ccccc3CC21` (configuration not stated), the T/C is 88 % of control under setting [7], 91 % of control under setting [8] and 100 % of control under setting [9].

In the case of `CCCCc1cc(O)c2c(c1O)C(=O)c1ccccc1C2=O`, the T/C is 91 % of control (dose: 100.0 mg/kg/injection, schedule: Q01DX001 (ip), vehicle: saline sonified); 97 % of control (dose: 100.0 mg/kg/injection, schedule: Q01DX009 (ip), vehicle: saline sonified); 86 % of control (dose: 200.0 mg/kg/injection, schedule: Q01DX001 (ip), vehicle: saline sonified); 102 % of control (dose: 200.0 mg/kg/injection, schedule: Q01DX009 (ip), vehicle: saline sonified); 94 % of control (dose: 400.0 mg/kg/injection, schedule: Q01DX001 (ip), vehicle: saline sonified); 96 % of control (dose: 400.0 mg/kg/injection, schedule: Q01DX009 (ip), vehicle: saline sonified).

Consider `CCCCOCCOP(=O)(OCCOCCCC)OCCOCCCC`, for which the T/C was 98 % of control under setting [7], 98 % of control under setting [8] and 101 % of control under setting [9].
